# Measurements as given in ChEMBL document CHEMBL4257479, “Design, synthesis and evaluation of indole derivatives as multifunctional agents against Alzheimer's disease” (Medchemcomm, 2018).
# pIC50: −log10 of the molar value. Calls of active or inactive are those of the source. The rule behind the calls is not given here.
# Molecular target: T1, Amine oxidase [flavin-containing] B (Homo sapiens, UniProt P27338)
# T1 sequence (P27338 whole entry): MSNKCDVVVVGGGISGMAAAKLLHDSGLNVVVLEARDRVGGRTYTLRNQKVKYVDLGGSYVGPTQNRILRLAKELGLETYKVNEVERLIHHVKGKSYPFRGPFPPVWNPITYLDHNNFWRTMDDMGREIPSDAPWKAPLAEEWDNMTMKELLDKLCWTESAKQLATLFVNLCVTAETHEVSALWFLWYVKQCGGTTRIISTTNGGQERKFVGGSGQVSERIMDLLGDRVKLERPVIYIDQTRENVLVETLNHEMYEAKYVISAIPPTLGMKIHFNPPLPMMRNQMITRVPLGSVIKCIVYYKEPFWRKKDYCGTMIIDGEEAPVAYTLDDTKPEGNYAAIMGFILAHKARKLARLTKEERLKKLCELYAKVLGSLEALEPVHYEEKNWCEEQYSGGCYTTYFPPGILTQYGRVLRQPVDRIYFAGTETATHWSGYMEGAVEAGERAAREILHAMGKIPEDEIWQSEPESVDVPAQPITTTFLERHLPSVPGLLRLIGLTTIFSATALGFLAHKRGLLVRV
# Details: not given
row,SMILES,pIC50
1,CCN(CC)C(=O)Oc1ccc2[nH]ccc2c1,< 4.00
2,CCN(CC)C(=O)Nc1ccc2cc[nH]c2c1,< 4.00
3,C#CCn1ccc2cc(NC(=O)N(CC)CC)ccc21,4.54
4,C#CCn1ccc2ccc(NC(=O)N(CC)CC)cc21,5.58
5,C#CCn1ccc2ccc(OC(=O)N(CC)CC)cc21,5.74
6,C#CCn1ccc2cc(OC(=O)N(CC)CC)ccc21,4.78
7,CCN(CC)C(=O)Oc1ccc2cc[nH]c2c1,< 4.00
8,CCN(CC)C(=O)Nc1ccc2[nH]ccc2c1,< 4.00

# Molecular target: T2, Amine oxidase [flavin-containing] A (Homo sapiens, UniProt P21397)
# T2 sequence (P21397 whole entry): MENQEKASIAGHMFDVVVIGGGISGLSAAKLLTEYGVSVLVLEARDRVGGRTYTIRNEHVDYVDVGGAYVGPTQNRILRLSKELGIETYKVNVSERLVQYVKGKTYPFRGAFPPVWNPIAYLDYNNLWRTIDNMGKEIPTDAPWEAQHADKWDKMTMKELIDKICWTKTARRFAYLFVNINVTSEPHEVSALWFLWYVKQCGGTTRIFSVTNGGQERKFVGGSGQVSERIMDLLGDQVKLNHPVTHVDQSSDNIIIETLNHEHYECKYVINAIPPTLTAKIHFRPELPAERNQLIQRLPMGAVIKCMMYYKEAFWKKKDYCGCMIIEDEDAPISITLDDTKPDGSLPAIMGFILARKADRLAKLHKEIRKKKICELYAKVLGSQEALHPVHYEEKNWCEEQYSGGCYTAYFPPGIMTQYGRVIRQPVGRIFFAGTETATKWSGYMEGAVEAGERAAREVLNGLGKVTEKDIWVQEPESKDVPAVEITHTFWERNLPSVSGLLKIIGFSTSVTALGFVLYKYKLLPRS
# Assay: Irreversible time dependent inhibition of human recombinant MAOA at 2 times IC50 using kynuramine as substrate preincubated up to 60 mins followed by 45 uM substrate addition by fluorescence assay
# Details: TDE = time-dependent effect
row,SMILES,inhibition (INH)
1,C#CCn1ccc2ccc(NC(=O)N(CC)CC)cc21,Tde
2,C#CCN(C)CCCOc1ccc(Cl)cc1Cl [CLORGILINE],Tde

# System: SH-SY5Y
# Assay: Cytoprotection against MPP+ induced cell death in human SH-SY5Y cells assessed as cell survival at 1 uM preincubated for 2 hrs followed by MPP+ addition and measured after 48 hrs by MTT assay (reference value: 52.78 +/- 7.35%)
# Type: functional
# Details: read-out: Activity
row,SMILES,viability at 1 µM [%]
1,CCN(CC)C(=O)Nc1ccc2cc[nH]c2c1,84.3
2,C#CCn1ccc2ccc(NC(=O)N(CC)CC)cc21,107

# System: not listed separately
# Assay: (§1) Cytotoxicity against human SH-SY5Y cells assessed as reduction in cell viability after 48 hrs by MTT assay
# Type: cell-based
# Details: SH-SY5Y cells
row,SMILES,CC50 at 48 h [µM]
1,CCN(CC)C(=O)Nc1ccc2cc[nH]c2c1,> 100
2,C#CCn1ccc2ccc(NC(=O)N(CC)CC)cc21,> 100

# System: SH-SY5Y
# Assay: as §1
# Type: cell-based
# Details: sh-sy5y, 48 h
row,SMILES,Activity
1,CCN(CC)C(=O)Nc1ccc2cc[nH]c2c1,Dose-dependent effect
2,C#CCn1ccc2ccc(NC(=O)N(CC)CC)cc21,Dose-dependent effect

# System: not listed separately
# Assay: Stability in 0.1 M HCl assessed as compound degradation at 1 mg/ml up to 7 days by UV/vis absorbance assay
# Type: physicochemical
# Details: buffer, 168 h
row,SMILES,Stability
1,C#CCn1ccc2ccc(NC(=O)N(CC)CC)cc21,Stable
2,C#CCn1ccc2ccc(OC(=O)N(CC)CC)cc21,Unstable

# Molecular target: T2, Amine oxidase [flavin-containing] A
# Assay: Inhibition of human recombinant MAOA using kynuramine as substrate preincubated for 10 mins followed by substrate addition at 10 secs intervals measured after 20 mins by fluorescence assay
# Details: not given
row,SMILES,pIC50
1,CCN(CC)C(=O)Oc1ccc2[nH]ccc2c1,4.88
2,CCN(CC)C(=O)Nc1ccc2cc[nH]c2c1,4.69
3,C#CCn1ccc2cc(NC(=O)N(CC)CC)ccc21,4.48
4,C#CCn1ccc2ccc(NC(=O)N(CC)CC)cc21,5.37
5,C#CCn1ccc2ccc(OC(=O)N(CC)CC)cc21,4.29
6,C#CCn1ccc2cc(OC(=O)N(CC)CC)ccc21,4.00
7,CCN(CC)C(=O)Oc1ccc2cc[nH]c2c1,4.05
8,C#CCN[C@@H]1CCc2ccc(OC(=O)N(C)CC)cc21 [LADOSTIGIL],< 4.00
9,CCN(CC)C(=O)Nc1ccc2[nH]ccc2c1,< 4.00

# System: SH-SY5Y
# Assay: Cytoprotection against MPP+ induced cell death in human SH-SY5Y cells assessed as cell survival at 5 to 10 uM preincubated for 2 hrs followed by MPP+ addition and measured after 48 hrs by MTT assay (reference value: 52.78 +/- 7.35%)
# Type: functional, cell-based
# Details: not given
row,SMILES,Activity
1,CCN(CC)C(=O)Nc1ccc2cc[nH]c2c1,Active
2,C#CCn1ccc2ccc(NC(=O)N(CC)CC)cc21,Active

# System: not listed separately
# Assay: Stability in 0.1 M NaOH assessed as compound degradation at 1 mg/ml up to 7 days by UV/vis absorbance assay
# Type: physicochemical
# Details: 168 h
row,SMILES,Stability
1,C#CCn1ccc2ccc(NC(=O)N(CC)CC)cc21,Stable
2,C#CCn1ccc2ccc(OC(=O)N(CC)CC)cc21,Unstable

# Organism: Homo sapiens
# Assay: Selectivity index, ratio of IC50 for human recombinant MAOA to IC50 for human recombinant MAOB
# Details: not given
row,SMILES,Ratio IC50
1,CCN(CC)C(=O)Oc1ccc2[nH]ccc2c1,< 0.13
2,CCN(CC)C(=O)Nc1ccc2cc[nH]c2c1,< 0.2
3,C#CCn1ccc2cc(NC(=O)N(CC)CC)ccc21,1.16
4,C#CCn1ccc2ccc(NC(=O)N(CC)CC)cc21,1.65
5,C#CCn1ccc2ccc(OC(=O)N(CC)CC)cc21,28.1
6,C#CCn1ccc2cc(OC(=O)N(CC)CC)ccc21,6
7,CCN(CC)C(=O)Oc1ccc2cc[nH]c2c1,< 0.88
8,C#CCN[C@@H]1CCc2ccc(OC(=O)N(C)CC)cc21 [LADOSTIGIL],> 2.69

# Molecular target: Acetylcholinesterase (Electrophorus electricus, UniProt O42275)
# Sequence (O42275 whole entry): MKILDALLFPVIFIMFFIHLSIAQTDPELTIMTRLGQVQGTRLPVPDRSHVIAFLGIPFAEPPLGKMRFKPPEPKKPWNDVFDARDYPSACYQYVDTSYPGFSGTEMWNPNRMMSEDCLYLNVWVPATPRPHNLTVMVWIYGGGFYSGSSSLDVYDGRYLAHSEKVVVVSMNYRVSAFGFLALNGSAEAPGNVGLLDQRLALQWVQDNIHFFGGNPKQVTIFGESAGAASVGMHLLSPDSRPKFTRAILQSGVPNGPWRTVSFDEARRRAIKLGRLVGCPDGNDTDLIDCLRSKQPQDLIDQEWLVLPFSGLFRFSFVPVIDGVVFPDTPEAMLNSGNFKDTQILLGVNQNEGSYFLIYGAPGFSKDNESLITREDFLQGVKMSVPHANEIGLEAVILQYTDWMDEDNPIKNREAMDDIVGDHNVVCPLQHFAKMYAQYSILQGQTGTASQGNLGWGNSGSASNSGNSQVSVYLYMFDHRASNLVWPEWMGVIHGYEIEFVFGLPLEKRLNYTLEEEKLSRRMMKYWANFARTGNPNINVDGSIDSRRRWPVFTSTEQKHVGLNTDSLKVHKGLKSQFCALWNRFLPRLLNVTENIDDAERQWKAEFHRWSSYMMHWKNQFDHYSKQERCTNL
# Assay: Inhibition of electric eel AChE using acetylthiocholine iodide as substrate preincubated for 10 mins followed by substrate addition and measured after 10 mins by Ellman's method
# Details: not given
row,SMILES,pIC50
1,CCN(CC)C(=O)Oc1ccc2[nH]ccc2c1,5.56
2,CCN(CC)C(=O)Nc1ccc2cc[nH]c2c1,5.64
3,C#CCn1ccc2cc(NC(=O)N(CC)CC)ccc21,5.56
4,C#CCn1ccc2ccc(NC(=O)N(CC)CC)cc21,5.43
5,C#CCn1ccc2ccc(OC(=O)N(CC)CC)cc21,5.62
6,C#CCn1ccc2cc(OC(=O)N(CC)CC)ccc21,5.59
7,CCN(CC)C(=O)Oc1ccc2cc[nH]c2c1,5.43
8,C#CCN[C@@H]1CCc2ccc(OC(=O)N(C)CC)cc21 [LADOSTIGIL],4.50
9,CCN(CC)C(=O)Nc1ccc2[nH]ccc2c1,5.71

# Molecular target: Cholinesterase (Equus caballus, UniProt P81908)
# Sequence (P81908 whole entry): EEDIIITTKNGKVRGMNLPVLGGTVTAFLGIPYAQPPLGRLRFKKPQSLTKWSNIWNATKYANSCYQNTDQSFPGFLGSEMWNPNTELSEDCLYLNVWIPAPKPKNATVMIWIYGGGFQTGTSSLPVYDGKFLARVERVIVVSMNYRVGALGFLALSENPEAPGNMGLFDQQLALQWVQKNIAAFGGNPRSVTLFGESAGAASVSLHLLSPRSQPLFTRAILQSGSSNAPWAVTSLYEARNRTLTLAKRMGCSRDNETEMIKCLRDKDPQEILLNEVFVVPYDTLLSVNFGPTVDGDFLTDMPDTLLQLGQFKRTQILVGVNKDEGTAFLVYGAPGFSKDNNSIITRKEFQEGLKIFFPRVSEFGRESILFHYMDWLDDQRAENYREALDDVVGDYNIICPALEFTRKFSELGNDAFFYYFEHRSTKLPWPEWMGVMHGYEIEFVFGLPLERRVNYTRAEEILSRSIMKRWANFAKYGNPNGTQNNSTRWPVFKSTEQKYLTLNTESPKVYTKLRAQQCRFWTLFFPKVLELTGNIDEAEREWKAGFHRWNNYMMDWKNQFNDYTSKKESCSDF
# Assay: Inhibition of equine serum BuChE using S-butyrylthiocholine iodide as substrate pretreated for 10 mins followed by substrate addition and measured after 10 mins by Ellman's method
# Details: not given
row,SMILES,pIC50
1,CCN(CC)C(=O)Oc1ccc2[nH]ccc2c1,5.64
2,CCN(CC)C(=O)Nc1ccc2cc[nH]c2c1,5.34
3,C#CCn1ccc2cc(NC(=O)N(CC)CC)ccc21,5.40
4,C#CCn1ccc2ccc(NC(=O)N(CC)CC)cc21,5.55
5,C#CCn1ccc2ccc(OC(=O)N(CC)CC)cc21,5.30
6,C#CCn1ccc2cc(OC(=O)N(CC)CC)ccc21,5.52
7,CCN(CC)C(=O)Oc1ccc2cc[nH]c2c1,5.50
8,C#CCN[C@@H]1CCc2ccc(OC(=O)N(C)CC)cc21 [LADOSTIGIL],5.70
9,CCN(CC)C(=O)Nc1ccc2[nH]ccc2c1,5.46
